Earlier results, collected in patent US10665326B2, “Deep proteome markers of human biological aging and methods of determining a biological aging clock” (INSILICO MEDICINE, INC., priority 2017, dated 2020).

Assays:
[1] = test system: pre-senescent and senescent cells

Row | Molecule | mitogenic response (muscle cells) | killing of pre-senescent and senescent cells [1]
1 | 740 Y-P | stimulates a mitogenic response | 
2 | O=c1c(O)c(-c2ccc(O)c(O)c2)oc2cc(O)cc(O)c12 [quercetin] |  | able to kill pre-senescent and senescent cells
3 | Tocotrienols |  | able to kill pre-senescent and senescent cells
